The nature of data set [1]: Solubility of the free acid. Type of data set: physicochemical.
A further data set has as its target T1, TrkA (human full length) (Homo sapiens, UniProt P04629).
T1 construct: expressed recombinantly on the intracellular C-terminus of TrkA (human full length); host or cells: U2OS
Put plainly: PathHunter live whole cell functional assay, NGF stimulated TrkA activation. Type of data set: cell-based. The note with it: U2OS cell background, mean of triplicate; read-out: cellular IC50, inhibition of NGF stimulated TrkA activation. From the text:
There are several methods to measure whole length TrkA activation stimulated by its natural ligand or agonist NGF in live cells. For example, the PathHunter Profiling services offered by DiscoveRx (Fremont, Calif.). The PathHunter technology is an adaptation of enzyme fragment complementation that provides a novel, generic functional cell-based assay format for detecting protein-protein interactions. In this cell-based assay approach, with U2OS cell background, a small peptide epitope (PK) is expressed recombinantly on the intracellular C-terminus of TrkA (human full length). This is co-expressed with a larger sequence, termed enzyme acceptor (EA) that is attached to a cytoplasmic protein SHC1 which will interact with TrkA intracellularly. NGF induced activation of TrkA receptor causes either homo- or hetero-dimerization of TrkA resulting in cross-phosphorylation. The SHC1-EA fusion protein then binds the phosphorylated TrkA receptor forcing complementation of the PK and EA fragment. This interaction generates an active beta-galactosidase enzyme, which is detected using a chemiluminescent substrate.

The test system of data set [2] is mechanical allodynia in CCI rats. In words: Chronic constriction injury (CCI) model of neuropathic pain. In kind it is in vivo, rat. Conditions: for side effects observed in dosed CCI-rats (drowsiness, motor incoordination, other abnormality): single oral dose (gabapentin 100 mg/kg). From the text:
The CCI model is one of the most commonly used mono-neuropathic pain model firstly described in details by Bennett and Xie (Bennett G J, Xie Y K. Pain. 1988; 33(1):87-107). It mimics important clinical chronic pain symptoms such as mechanical allodynia and thermal hyperalgesia. Chronic constriction injury of the sciatic nerve was produced by tying four loose ligatures around the left sciatic nerve according to the method of Bennett and Xie. […] Calibrated von Frey filaments were used to determine the lowest mechanical (tactile) threshold required to evoke a brisk paw withdrawal reflex in the rat hindpaws. Rats were allowed to acclimatize in wire mesh cages for 15-20 min prior to von Frey testing. Assessment of paw withdrawal thresholds (PWTs) using von Frey filaments was undertaken prior to CCI-surgery (pre-surgery baseline on day 0). Before the drug dosing on day 14, the pre-dose baseline was recorded for each rat. […] Drug-naïve CCI-rats (n=4-6 per group) were used. The oral (PO) gavage vehicle was either 10% (w/v) Povidone K25 in water for PO dosing, or 18% (w/v) CrosPovidone in water for PO dosing, or 0.5% CMC-Na/0.1% Tween 80 in distilled water for PO dosing. The positive control gabapentin was dissolved in the vehicle and orally given at 100 mg/kg (by oral gavage). Test article was dissolved or suspended in the vehicle and orally given at 25, 50, 100 and 150 mg/kg. Each CCI-rat was administered a single oral dose of test article, gabapentin or vehicle control, 2 hours before assessment of PWT.

The target in a further data set is TrkC (Homo sapiens, UniProt Q16288). In words: PathHunter live whole cell functional assay, NT3 stimulated TrkC activation. Conditions: triplicate. In kind it is cell-based.
Sequence of TrkC (Q16288 32-839): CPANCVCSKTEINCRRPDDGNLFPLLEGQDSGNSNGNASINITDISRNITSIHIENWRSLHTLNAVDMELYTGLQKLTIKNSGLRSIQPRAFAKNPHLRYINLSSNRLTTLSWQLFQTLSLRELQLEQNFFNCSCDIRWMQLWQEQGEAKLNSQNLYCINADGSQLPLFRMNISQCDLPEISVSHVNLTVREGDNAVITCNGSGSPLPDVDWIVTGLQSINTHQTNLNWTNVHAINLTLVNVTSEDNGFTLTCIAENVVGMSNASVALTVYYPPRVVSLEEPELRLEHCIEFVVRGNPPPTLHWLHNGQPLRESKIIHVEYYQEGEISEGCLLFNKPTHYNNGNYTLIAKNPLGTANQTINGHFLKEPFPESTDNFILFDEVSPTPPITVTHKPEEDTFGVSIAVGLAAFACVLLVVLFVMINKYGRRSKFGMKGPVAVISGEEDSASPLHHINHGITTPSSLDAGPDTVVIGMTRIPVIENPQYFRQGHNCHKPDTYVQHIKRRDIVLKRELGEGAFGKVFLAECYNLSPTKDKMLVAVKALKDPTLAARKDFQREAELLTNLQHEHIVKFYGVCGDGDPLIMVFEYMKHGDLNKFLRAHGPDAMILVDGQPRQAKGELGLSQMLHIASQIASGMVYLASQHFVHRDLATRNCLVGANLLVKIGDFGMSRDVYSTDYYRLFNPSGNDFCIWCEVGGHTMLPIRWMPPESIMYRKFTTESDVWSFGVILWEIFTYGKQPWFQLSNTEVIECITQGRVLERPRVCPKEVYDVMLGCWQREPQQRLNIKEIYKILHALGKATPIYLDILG
Data set [3] concerns human pancreatic cancer cells (PANC-1). In words: Subcutaneous xenograft tumor mouse model. In kind it is in vivo. The note with it: oral 150 mg/kg, Day 7 postdose, p<0.02.
The target in another data set is TrkB (Homo sapiens, UniProt Q16620). In words: PathHunter live whole cell functional assay, BDNF stimulated TrkB activation. In kind it is cell-based. Conditions: triplicate.
Sequence of TrkB (Q16620 32-822): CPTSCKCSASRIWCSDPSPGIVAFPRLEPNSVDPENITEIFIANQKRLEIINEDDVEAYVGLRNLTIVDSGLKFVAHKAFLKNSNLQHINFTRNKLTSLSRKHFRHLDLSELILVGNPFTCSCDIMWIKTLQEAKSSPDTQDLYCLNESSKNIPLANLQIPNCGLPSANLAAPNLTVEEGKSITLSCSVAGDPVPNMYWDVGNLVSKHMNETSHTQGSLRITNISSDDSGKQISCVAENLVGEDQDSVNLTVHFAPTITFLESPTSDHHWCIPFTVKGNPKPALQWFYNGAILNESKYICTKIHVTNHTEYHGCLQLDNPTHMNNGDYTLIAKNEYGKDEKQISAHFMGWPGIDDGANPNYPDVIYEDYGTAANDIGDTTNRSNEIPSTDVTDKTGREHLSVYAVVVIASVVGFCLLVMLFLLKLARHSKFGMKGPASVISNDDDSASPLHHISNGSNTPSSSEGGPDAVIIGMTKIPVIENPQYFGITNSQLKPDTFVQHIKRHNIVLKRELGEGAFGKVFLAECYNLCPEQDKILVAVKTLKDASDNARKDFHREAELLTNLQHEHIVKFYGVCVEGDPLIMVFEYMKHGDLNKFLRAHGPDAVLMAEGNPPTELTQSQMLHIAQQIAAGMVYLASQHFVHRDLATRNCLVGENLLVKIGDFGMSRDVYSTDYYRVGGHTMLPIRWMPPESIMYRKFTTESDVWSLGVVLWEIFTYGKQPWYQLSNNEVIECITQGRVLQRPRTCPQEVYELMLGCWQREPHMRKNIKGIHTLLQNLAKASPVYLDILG
Data set [4] relates to human liver cancer cells SK-HEP-1 and HepG2. In words: Cell viability and proliferation assay (CellTiter-Glo), liver cancer cells. Conditions: 24 h or 48 h or 96 h incubation. In kind it is cell-based. As for the experimental part: (§1) To assess the chemosensitivity of tumor cells, cell viability is measured by CellTiter-Glo® Luminescent Cell Viability Assay (Promega; WI, USA) per the manufacturer's instruction. Briefly, […] to 7×10^5 cells/ml are cultured in sterile 96-well plates in the presence of increasing concentrations of the drugs (test article, 0 to 100 μM), or vehicle in RPMI medium. The plates are then incubated for 24 to 96 h, and then 100 μl of CellTiter-Glo reagent is added to lyse the cells. After a 10-min incubation at room temperature, the luminescence is recorded in a luminometer with an integration time of 1 s per well. The luminescence signals for the drug-treated cells are normalized by the luminescence signal obtained from vehicle-treated cells. As an alternative method to quantitate cell viability, the trypan blue exclusion dye method was used. Vehicle- or drug-treated cells were assayed by adding trypan blue solution (0.4% in phosphate-buffered saline [PBS]) to the culture medium. After 3 min, the number of dead cells that retained the dye is compared to the total number of cells to calculate cell viability. GraphPad Prism 5 software is used to calculate IC50 and plot effect-dose curve of drugs. Multiplate reader: EnVision 2104 (PerkinElmer). % of control variability=100*[(X(drug_treated)−L(baseline))/(H(vehicle_control)−L(baseline))]. […]
On the technique in general: Cellular ATP, detected with luciferase, serves as a proxy for viable cell number.

A short description of data set [5]: Rat pharmacokinetics (plasma and brain, LC-MS/MS). Type of data set: in vivo. The note with it: PO, 100 mg/kg, mean. As for the experimental part: Compound I was dosed to nonfasted male CD IGS rats (weighting 180-250 g, Charles River Laboratories) by single intravenous (IV, n=3/group) or oral gavage (PO, n=4/group, including control rat group for drug-free blood and brain collection) administration at a nominal dose levels of 3 mg/kg (IV) or 5 mg/kg (IV) and 10, 50, 100 mg/kg (PO) respectively. Compound was formulated in either DMSO/Solutol: HS 15/phosphate buffered saline, pH 7.4 (PBS) for both IV and PO dosing, or 10% (w/v) Povidone K12 in water for IV dosing or 10% (w/v) Povidone K25 in water for PO dosing, or 18% (w/v) CrosPovidone in water for PO dosing. An intravenous profile was obtained by taking serial or terminal blood samples at 3, 10, 30, 60, 120, 240, 360, 1440 min post dose. An oral profile was obtained by taking serial or terminal blood samples at 10, 30, 60, 120, 240, 360, 480, 1440 min post dose.
Plasma Sample Collection from Rats. Animals were sedated under general inhalant anesthesia (3% isoflurane) for blood collection by cardiac puncture. […]
Plasma and brain samples were subjected to quantitative analysis by LC-MS/MS using compound-specific mass transitions. […] The concentrations of the test compound in brain (ng/g brain tissue) and in plasma (ng/mL) as well as the ratio of the brain concentration and the plasma concentration at each time point were determined and reported.

For data set [6], the system named is human stomach cancer cells NCI-N87. Put plainly: Cell viability and proliferation assay (CellTiter-Glo), stomach cancer cells. Type of data set: cell-based. Conditions: 24 h or 48 h or 96 h incubation. The protocol:
as §1

Data set [7] relates to mechanical allodynia in SNL rats. In words: Spinal nerve ligation (SNL) mono-neuropathic pain model. In kind it is in vivo, rat. Conditions: oral administration, dose-dependent. The protocol:
The surgical procedure will be performed according to the method firstly described by Kim and Chung (Kim S H, Chung J M. Pain. 1992; 50(3):355-63.). This procedure will result in tactile allodynia in the left hindpaw. […] The dose-response anti-allodynia effects of test compound: on day 14 after surgery, rats were treated with test article at one of four doses, vehicle or positive control by oral gavage, and PWT was determined by calibrated von Frey filaments at time points of 0 (right before the drug dosing, Pre-Dose Baseline), 0.5, 1, 2, 4 and 6 hr. The anti-allodynia effects of repeated administration of test article: Administration of test article was started on day 7 after surgery, once a day for 7 days. PWT was determined by calibrated von Frey filaments, 2 hour after test article dosing each day. After 7 days dosing, the measurement were continued, every other day without compound dosing for another 7 days. PWT was determined at the time points as given above.

Data set [8] has as its system human pancreatic cancer cells AsPC-1, MIA PaCa-2, BxPC-3, Capan-1 and Panc-1. In words: Cell viability and proliferation assay (CellTiter-Glo), pancreatic cancer cells. Type of data set: cell-based. Conditions: 24 h or 48 h or 96 h incubation. As for the experimental part: as §1
In data set [9] the test system is CFA-induced inflammatory pain. Put plainly: Rat CFA-induced inflammatory pain model. In kind it is in vivo. The note with it: 50 μL of 1 mM s.c. into the paw 3 hours after CFA. As for the experimental part:
Hyperalgesia was induced by subcutaneously injecting 50 μL of CFA (Sigma-Aldrich, St. Louis, Mo., USA) into the plantar surface of the left hind paw of the rats using a 30-gauge hypodermic needle under sevoflurane anesthesia. The classical signs of inflammation, including edema and redness, for up the last day of tests were recorded. To assess the effect of test article on CFA-induced inflammatory pain, the rats were anesthetized with sevoflurane 3 hours after CFA injection and then injected 50 μL of either 1 mM test article (n=6) or Saline (n=4) subcutaneously (S.C.) into the same site as the CFA injection, using a 30-gauge hypodermic needle under sevoflurane anesthesia, according to published method (Ueda K., et al, J Pharmacol. Sci., 2010; 112(4):438-43). Paw withdrawal latencies (thermal hyperalgesia) are measured before and at […] 2, 4, and 7 days after CFA injection. Mechanical thresholds were also measured in the same way with either Formula 1 compound (n=6) or Saline (n=4) at similar different time points (for example, 1, 3 hour and 3 days). The noxious heat and mechanical thresholds were separately measured in each group of rats. The threshold was measured 3-5 times in each rat and then averaged. Stimulus interval was 5 min.

The nature of data set [10]: Accelerated stability tests by XRPD and Raman. Type of data set: physicochemical. The note with it: over 1 week. The protocol:
Approximately 2 mg of sample was gently compressed on the XRPD zero back ground single obliquely cut silica sample holder. The sample was then loaded into a D/MAX 2200 X-ray powder diffractometer (Rigaku) or a Philips X-Pert MPD diffractometer and analyzed using the following experimental conditions (Tube anode: Cu; Generator tension: 40 kV; Tube current: 40 mA; Wavelength alpha1: 1.54056 Å; Wavelength alpha2: 1.5444 Å; Start angle [2 theta]: 5; End angle [2 theta]: 50; and Continuous scan). For suspected novel forms a slightly slower scan speed was used over a range of […].
Samples were analyzed by a Nicolet Almega XR Dispersive Raman Microscope for its Raman spectrum using the following conditions (Exposure Time: 1.0 s; Acquisition No: 10; Pinhole Size: […]; Wavelength range: 2000˜300 cm^−1 (single grating); Laser: He—Ne 780 nm 100% power, Objective: 20×/0.40 or 50×/0.75 (magnifier/numerical aperture number)). Then the measured Raman spectra were corrected by baseline subtraction using the software OMNIC™ v7.3.

T1 sequence (P04629 33-796): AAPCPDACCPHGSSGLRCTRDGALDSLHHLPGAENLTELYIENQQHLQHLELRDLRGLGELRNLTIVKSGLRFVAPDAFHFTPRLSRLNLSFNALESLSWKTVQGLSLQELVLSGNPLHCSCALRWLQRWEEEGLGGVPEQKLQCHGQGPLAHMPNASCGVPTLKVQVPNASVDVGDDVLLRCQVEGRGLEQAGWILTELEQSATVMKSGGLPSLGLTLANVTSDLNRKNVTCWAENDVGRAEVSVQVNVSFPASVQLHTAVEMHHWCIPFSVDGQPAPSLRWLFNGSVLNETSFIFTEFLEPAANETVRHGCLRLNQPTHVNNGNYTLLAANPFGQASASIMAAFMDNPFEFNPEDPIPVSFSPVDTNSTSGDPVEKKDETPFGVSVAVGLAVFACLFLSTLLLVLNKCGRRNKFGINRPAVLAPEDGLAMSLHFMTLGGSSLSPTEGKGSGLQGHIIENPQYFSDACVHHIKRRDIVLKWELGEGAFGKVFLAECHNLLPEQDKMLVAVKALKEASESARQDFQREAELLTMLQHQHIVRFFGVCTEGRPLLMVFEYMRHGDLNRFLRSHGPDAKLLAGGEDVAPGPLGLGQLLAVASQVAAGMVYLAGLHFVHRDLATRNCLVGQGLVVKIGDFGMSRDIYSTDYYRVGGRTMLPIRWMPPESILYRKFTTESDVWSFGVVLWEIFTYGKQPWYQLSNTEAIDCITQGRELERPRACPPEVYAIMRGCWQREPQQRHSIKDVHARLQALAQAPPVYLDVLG

Regarding `O=C(O)c1ccc(Nc2cc(N3CCN(C4CCCCC4)CC3)c3noc4c3c2C(=O)c2ccccc2-4)cc1` [Compound 701, 4-((3-(4-cyclohexylpiperazin-1-yl)-6-oxo-6H-anthra[1,9-cd]isoxazol-5-yl)amino)benzoic acid], the solubility result in data set [1] is reported as “limited solubility”.
Usually IC50 stands for the concentration that inhibits the measured activity by half. Consider `O=C([O-])c1ccc(Nc2cc(N3CCN(C4CCCCC4)CC3)c3noc4c3c2C(=O)c2ccccc2-4)cc1.[Na+]` [Compound I, Sodium 4-((3-(4-cyclohexylpiperazin-1-yl)-6-oxo-6H-anthra[1,9-cd]isoxazol-5-yl)amino)benzoate], for which the IC50 is ~0.05 µM on TrkA (human full length); > 10 µM against TrkC; > 10 µM against TrkB; 2 to 8 µM in [4]; ~7 µM in data set [6]; 2 to 5 µM in data set [8]. Also, the “reduction of mechanical allodynia (paw withdrawal threshold, von Frey, FIG. 2)” value in data set [2] (single oral dose 25, 50, 100 and 150 mg/kg, 2 hours before assessment, dose-dependent) is on record as “significantly reduced mechanical allodynia”. Besides, in data set [2], the “side effects observed in dosed CCI-rats (drowsiness, motor incoordination, other abnormality)” value was “no such effect or other abnormality was observed”. In addition, the “tumor volume reduction compared to vehicle treated group” value in [3] is given as “more than 21%”. In data set [5], the F is reported as ~100%. Also, in data set [7], the “reduction of mechanical allodynia (paw withdrawal threshold, von Frey)” value is recorded as “significantly reduced mechanical allodynia”. The “analgesic effect (thermal and mechanical thresholds, FIG. 1)” value in data set [9] was “efficacious in relieving the pain”. Moreover, the “solid-state stability by XRPD and Raman” value in data set [10] (40° C./75% RH) and in data set [10] (80° C.) was “no instability” throughout.
With `NCC1(CC(=O)O)CCCCC1` [gabapentin, reference compound], the “side effects observed in dosed CCI-rats (drowsiness, motor incoordination, other abnormality)” value in [2] is listed as “drowsiness or motor incoordination”.

Values taken from patent US10301271B2, “Crystalline forms of tyrosine kinase inhibitors and their salts” (PURDUE PHARMA L.P., priority 2014, dated 2019).
